Test results taken from publication PMC11364775, “Ion occupancy of the selectivity filter controls opening of a cytoplasmic gate in the K2P channel TALK-2” (Nature Communications, 2024).

Tests used:
WT TALK-2 channels [1] = target: T1, WT TALK-2 channels (Homo sapiens, UniProt Q96T54); experiment: Pore blocker inhibition (dose-response, residual currents) in inside-out patches at +40 mV; format: cell-based; parameters: expressed in transfected cells; host or cells: Xenopus laevis oocytes (cRNA injection), excised inside-out patches; conditions: for IC50: IC50 of TPenA inhibition
T1 sequence (Q96T54 1-332): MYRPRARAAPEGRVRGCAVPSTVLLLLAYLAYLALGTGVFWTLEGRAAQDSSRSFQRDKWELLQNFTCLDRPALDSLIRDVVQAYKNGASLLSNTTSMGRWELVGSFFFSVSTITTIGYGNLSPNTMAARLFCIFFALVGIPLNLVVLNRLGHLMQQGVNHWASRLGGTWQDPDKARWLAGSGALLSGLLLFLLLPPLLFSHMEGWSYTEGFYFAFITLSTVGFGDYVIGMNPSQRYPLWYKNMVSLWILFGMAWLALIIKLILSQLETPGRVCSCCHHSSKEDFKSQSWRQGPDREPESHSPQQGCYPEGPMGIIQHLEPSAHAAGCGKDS
Description: Data shown are the mean ± s.e.m and the number (n) of independent experiments and repeats of representative measurements with similar results is indicated in the figure.
Electrophysiological recordings: Excised patch measurements in inside-out configuration under voltage-clamp conditions were performed at room temperature (22 – 24 °C). Patch pipettes were made from thick-walled borosilicate glass GB 200TF-8P (Science Products, Germany), had resistances of 0.2–0.5 MΩ (tip diameter of 10 - 25 µm) and filled with a pipette solution (in mM): 120 KCl, 10 HEPES and 3.6 CaCl2 (pH 7.0 - 8.5 adjusted with KOH/HCl) or 120 KCl, 10 AMPSO and 3.6 CaCl2 (pH 9.0 - 10.5 adjusted with KOH/HCl). Intracellular bath solutions and compounds were applied to the cytoplasmic side of excised patches for the various K^+ channels via a gravity flow multi-barrel pipette system. Intracellular solution had the following composition (in mM): 120 KCl, 10 HEPES, 2 EGTA and 1 Pyrophosphate (pH adjusted with KOH/HCl). In other intracellular bath solutions, K^+ was replaced by Rb^+ (pH 7.4 adjusted with RbOH/HCl). Currents were recorded with an EPC10 amplifier (HEKA electronics, Germany) and sampled at 10 kHz or higher and filtered with 3 kHz (-3 dB) or higher as appropriate for sampling rate.
Data analysis and statistics were done using Fitmaster (HEKA electronics, version: v2x73.5, Germany), Microsoft Excel 2021 (Microsoft Corporation, USA), and Igor Pro 9 software (WaveMetrics Inc., USA). Recorded currents were analyzed from stable membrane patches at a voltage defined in the respective figure legend or with a voltage protocol as indicated in the respective figure. […] Percentage inhibition or residual currents upon blocker application for a ligand (drug or bioactive lipid) was calculated from stable currents of excised membrane patches using the following Eqs. 2 and 3:2 %inhibition=1−Iinhibited/Ibasal*100 3 Residual current=100−%inhibition where Iinhibited refers to the stable current level recorded in the presence of a given concentration of a drug or bioactive lipid and Ibasal to the measured current before ligand application.

WT TALK-2 channels [2] = target: T1, WT TALK-2 channels; experiment: Conductance-voltage (G-V) curves from tail currents, V1/2 (intracellular Rb+); format: cell-based; parameters: expressed in transfected cells; host or cells: Xenopus laevis oocytes (cRNA injection), excised inside-out patches; conditions: for Normalized current: TALK-2 WT + 1 mM TPenA
Excerpt: The voltage-dependent activation mechanism of the SF gate in K2P channels allows to estimate the electrical work (ΔG = zFΔV1/2) required for pore opening by fitting the G–V curve to a Boltzmann equation. […] The open state represents the situation of both gates being simultaneously open but voltage can only exert force on the SF gate that functions as voltage sensor. […] We further tested whether mutations that open the lower gate (L262A and L264A) would affect the extracellular pH sensitivity. […] We further explored this concept of allosteric coupling using the mutations identified in the functional alanine screen of TM2 and TM4. […]
Conductance-voltage (G–V) relationships were determined from tail currents recorded at a holding potential (VH) of −80 mV after 300 ms depolarizing steps as indicated in the respective figure legend. Data were analyzed with a single Boltzmann fit following Eq. 6:6 GV=Imax/1+e^V−V1/2/slope+Ibase where V1/2 represents the voltage of half-maximal activation, s is the slope factor and Imax and Ibase represent the upper and lower asymptotes. Under appropriate experimental conditions, you can use slope to calculate the valence (charge) of the ion moving across the channel. Slope equals R * T/ z * F where R is the universal gas constant, T is temperature in K, F is the Faraday constant, and z is the valence.

**Q.** What does the source list for `CCCCC[N+](CCCCC)(CCCCC)CCCCC` [TPenA, Tetra-pentyl-ammonium chloride]?
**A.** IC50 (WT TALK-2 channels [1]; 0.2 mM 2-APB, n = 7, legend of Fig. 5e): 778 ± 116 µM; IC50 (WT TALK-2 channels [1]; 0.5 mM 2-APB, n = 5, legend of Fig. 5e): 215 ± 28 µM; IC50 (WT TALK-2 channels [1]; 1.0 mM 2-APB, n = 16, legend of Fig. 5e): 54 ± 10 µM; IC50 (WT TALK-2 channels [1]; pre-activated with 0.2 mM 2-APB, +40 mV): 1110 ± 411 µM; IC50 (WT TALK-2 channels [1]; pre-activated with 0.5 mM 2-APB, +40 mV): 225 ± 25 µM; Normalized currents (WT TALK-2 channels [1]; TALK-2 WT + 0.2 mM 2-APB, 1 µM TPenA): 1.00; Normalized currents (WT TALK-2 channels [1]; TALK-2 WT + 0.2 mM 2-APB, 10 µM TPenA): 0.87; Normalized currents (WT TALK-2 channels [1]; TALK-2 WT + 0.2 mM 2-APB, 100 µM TPenA): 0.81; Normalized currents (WT TALK-2 channels [1]; TALK-2 WT + 0.2 mM 2-APB, 1000 µM TPenA): 0.47; Normalized currents (WT TALK-2 channels [1]; TALK-2 WT + 0.2 mM 2-APB, 10000 µM TPenA): 0.15; Normalized currents (WT TALK-2 channels [1]; TALK-2 WT + 0.5 mM 2-APB, 1 µM TPenA): 1.02; Normalized currents (WT TALK-2 channels [1]; TALK-2 WT + 0.5 mM 2-APB, 10 µM TPenA): 0.89; Normalized currents (WT TALK-2 channels [1]; TALK-2 WT + 0.5 mM 2-APB, 100 µM TPenA): 0.63; Normalized currents (WT TALK-2 channels [1]; TALK-2 WT + 0.5 mM 2-APB, 1000 µM TPenA): 0.25; Normalized currents (WT TALK-2 channels [1]; TALK-2 WT + 0.5 mM 2-APB, 10000 µM TPenA): 0.08; Normalized currents (WT TALK-2 channels [1]; TALK-2 WT + 1.0 mM 2-APB, 1 µM TPenA): 1.00; Normalized currents (WT TALK-2 channels [1]; TALK-2 WT + 1.0 mM 2-APB, 10 µM TPenA): 0.87; Normalized currents (WT TALK-2 channels [1]; TALK-2 WT + 1.0 mM 2-APB, 100 µM TPenA): 0.33; Normalized currents (WT TALK-2 channels [1]; TALK-2 WT + 1.0 mM 2-APB, 1000 µM TPenA): 0.07; Normalized currents (WT TALK-2 channels [1]; TALK-2 WT + 1.0 mM 2-APB, 2000 µM TPenA): 0.06; Normalized currents (WT TALK-2 channels [1]; TALK-2 WT + 1.0 mM 2-APB, 5000 µM TPenA): 0.06; Normalized currents (WT TALK-2 channels [1]; TALK-2 WT + 1.0 mM 2-APB, 10000 µM TPenA): 0.01; Residual currents with 1 mM TPenA (WT TALK-2 channels [1]; TALK-2 WT unstimulated, +40 mV): 101.31%; Residual currents with 1 mM TPenA (WT TALK-2 channels [1]; TALK-2 WT, 0.2 mM 2-APB, +40 mV): 47.38%; Residual currents with 1 mM TPenA (WT TALK-2 channels [1]; TALK-2 WT, 0.5 mM 2-APB, +40 mV): 25.47%; Residual currents with 1 mM TPenA (WT TALK-2 channels [1]; TALK-2 WT, 1.0 mM 2-APB, +40 mV): 6.78%; Normalized currents (WT TALK-2 channels [1]; TALK-2 WT, 1 µM TPenA): 0.98; Normalized currents (WT TALK-2 channels [1]; TALK-2 WT, 10 µM TPenA): 0.97; Normalized currents (WT TALK-2 channels [1]; TALK-2 WT, 100 µM TPenA): 0.95; Normalized currents (WT TALK-2 channels [1]; TALK-2 WT, 1000 µM TPenA): 0.95; Normalized currents (WT TALK-2 channels [1]; TALK-2 WT, 5000 µM TPenA): 0.98; Normalized currents (WT TALK-2 channels [1]; TALK-2 WT, 10000 µM TPenA): 0.99; TPenA block in the basal state (WT TALK-2 channels [1]; basal state (low PO), 1.0 mM TPenA): hardly any TPenA block; leftward shift of the G-V curve (WT TALK-2 channels [2]; 1 mM TPenA, intracellular Rb+): 46.1 ± 4.9 mV; Normalized current (WT TALK-2 channels [2]; Voltage 0.000): 0.197; Normalized current (WT TALK-2 channels [2]; Voltage 0.005): 0.242; Normalized current (WT TALK-2 channels [2]; Voltage 0.010): 0.308; Normalized current (WT TALK-2 channels [2]; Voltage 0.015): 0.381; Normalized current (WT TALK-2 channels [2]; Voltage 0.020): 0.454; Normalized current (WT TALK-2 channels [2]; Voltage 0.025): 0.532; Normalized current (WT TALK-2 channels [2]; Voltage 0.030): 0.607; Normalized current (WT TALK-2 channels [2]; Voltage 0.035): 0.671; Normalized current (WT TALK-2 channels [2]; Voltage 0.040): 0.728; Normalized current (WT TALK-2 channels [2]; Voltage 0.045): 0.768; Normalized current (WT TALK-2 channels [2]; Voltage 0.050): 0.808; Normalized current (WT TALK-2 channels [2]; Voltage 0.055): 0.838; Normalized current (WT TALK-2 channels [2]; Voltage 0.060): 0.865; Normalized current (WT TALK-2 channels [2]; Voltage 0.065): 0.890; Normalized current (WT TALK-2 channels [2]; Voltage 0.070): 0.906; Normalized current (WT TALK-2 channels [2]; Voltage 0.075): 0.928; Normalized current (WT TALK-2 channels [2]; Voltage 0.080): 0.937; Normalized current (WT TALK-2 channels [2]; Voltage 0.085): 0.948; Normalized current (WT TALK-2 channels [2]; Voltage 0.090): 0.958; Normalized current (WT TALK-2 channels [2]; Voltage 0.095): 0.967; Normalized current (WT TALK-2 channels [2]; Voltage 0.100): 0.967; Normalized current (WT TALK-2 channels [2]; Voltage 0.105): 0.966; Normalized current (WT TALK-2 channels [2]; Voltage 0.110): 0.976; Normalized current (WT TALK-2 channels [2]; Voltage 0.115): 0.977; Normalized current (WT TALK-2 channels [2]; Voltage 0.120): 0.974; Normalized current (WT TALK-2 channels [2]; Voltage 0.125): 0.985; Normalized current (WT TALK-2 channels [2]; Voltage 0.130): 0.971; Normalized current (WT TALK-2 channels [2]; Voltage 0.135): 0.973; Normalized current (WT TALK-2 channels [2]; Voltage 0.140): 0.960; Normalized current (WT TALK-2 channels [2]; Voltage 0.145): 0.967; Normalized current (WT TALK-2 channels [2]; Voltage 0.150): 0.968; Normalized current (WT TALK-2 channels [2]; Voltage 0.155): 0.943; Normalized current (WT TALK-2 channels [2]; Voltage 0.160): 0.968; Normalized current (WT TALK-2 channels [2]; Voltage -0.005): 0.160; Normalized current (WT TALK-2 channels [2]; Voltage -0.010): 0.136; Normalized current (WT TALK-2 channels [2]; Voltage -0.015): 0.121; Normalized current (WT TALK-2 channels [2]; Voltage -0.020): 0.109; Normalized current (WT TALK-2 channels [2]; Voltage -0.025): 0.102; Normalized current (WT TALK-2 channels [2]; Voltage -0.030): 0.098; Normalized current (WT TALK-2 channels [2]; Voltage -0.035): 0.094; Normalized current (WT TALK-2 channels [2]; Voltage -0.040): 0.089; Normalized current (WT TALK-2 channels [2]; Voltage -0.045): 0.087; Normalized current (WT TALK-2 channels [2]; Voltage -0.050): 0.085; Normalized current (WT TALK-2 channels [2]; Voltage -0.055): 0.083; Normalized current (WT TALK-2 channels [2]; Voltage -0.060): 0.079; Normalized current (WT TALK-2 channels [2]; Voltage -0.065): 0.079; Normalized current (WT TALK-2 channels [2]; Voltage -0.070): 0.079; Normalized current (WT TALK-2 channels [2]; Voltage -0.075): 0.077; Normalized current (WT TALK-2 channels [2]; Voltage -0.080): 0.077; Normalized current (WT TALK-2 channels [2]; Voltage -0.085): 0.078; Normalized current (WT TALK-2 channels [2]; Voltage -0.090): 0.077; Normalized current (WT TALK-2 channels [2]; Voltage -0.095): 0.078; Normalized current (WT TALK-2 channels [2]; Voltage -0.100): 0.076; Normalized current (WT TALK-2 channels [2]; Voltage -0.105): 0.077; Normalized current (WT TALK-2 channels [2]; Voltage -0.110): 0.079; Normalized current (WT TALK-2 channels [2]; Voltage -0.115): 0.077; Normalized current (WT TALK-2 channels [2]; Voltage -0.120): 0.077; V1/2 (WT TALK-2 channels [2]; TALK-2 WT, 1 mM ligand): 25.5 mV
